Assay results reported in US11708318B2, “Polymorphic forms of RAD1901-2HCL” (Radius Pharmaceuticals, Inc., priority 2017, dated 2023).
“Also recorded” adds a separate entry of the source. Each block holds one compound with its values, some of them ahead of it.

What was measured:
[1] = Storage at elevated temperature/humidity, analysed by XRPD; format: physicochemical
[2] = target: T1, estrogen receptor (ER) (Homo sapiens, UniProt P03372); details: cited from earlier work
T1 sequence (P03372 1-595): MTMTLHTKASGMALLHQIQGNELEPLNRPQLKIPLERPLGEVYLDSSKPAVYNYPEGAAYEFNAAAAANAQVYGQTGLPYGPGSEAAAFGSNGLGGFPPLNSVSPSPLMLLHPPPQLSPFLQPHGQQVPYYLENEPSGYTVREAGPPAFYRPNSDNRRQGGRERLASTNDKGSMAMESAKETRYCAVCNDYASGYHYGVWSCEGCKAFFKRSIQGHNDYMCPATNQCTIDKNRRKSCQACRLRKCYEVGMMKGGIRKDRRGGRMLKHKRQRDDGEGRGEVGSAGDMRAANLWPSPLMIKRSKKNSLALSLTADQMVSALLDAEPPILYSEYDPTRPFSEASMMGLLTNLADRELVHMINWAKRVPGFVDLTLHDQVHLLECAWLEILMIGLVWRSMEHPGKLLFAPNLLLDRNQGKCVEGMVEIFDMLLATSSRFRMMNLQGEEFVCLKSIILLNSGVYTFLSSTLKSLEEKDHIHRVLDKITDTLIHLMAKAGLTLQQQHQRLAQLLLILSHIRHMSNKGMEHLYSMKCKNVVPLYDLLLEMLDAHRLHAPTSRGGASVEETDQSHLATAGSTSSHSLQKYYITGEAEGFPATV

[3] = Gravimetric Vapour Sorption (GVS), with XRPD of the recovered sample; format: physicochemical
Experimental: Sorption isotherms were obtained using a SMS DVS Intrinsic moisture sorption analyzer, controlled by DVS Intrinsic Control software v1.0.1.2 (or v 1.0.1.3). The sample temperature was maintained at 25° C. by the instrument controls. The humidity was controlled by mixing streams of dry and wet nitrogen, with a total flow rate of 200 ml/min. The relative humidity was measured by a calibrated Rotronic probe (dynamic range of 1.0-100% RH), located near the sample. The weight change, (mass relaxation) of the sample as a function of % RH was constantly monitored by the microbalance (accuracy ±0.005 mg).
A sample (e.g., 20 mg) was placed in a tared mesh stainless steel basket under ambient conditions. The sample was loaded and unloaded at 40% RH and 25° C. (typical room conditions). A moisture sorption isotherm was performed as outlined below (2 scans giving 1 complete cycle). Standard isotherms were performed at 25° C. at 10% RH intervals over a 0-90% RH range. Data analysis was carried out using Microsoft Excel using DVS Analysis Suite v6.2 (or 6.1 or 6.0).
In a cycle of 2 scans, the first scan was performed with adsorption of 40-90% RH, followed by a second scan with desorption of 90-0% RH and adsorption of 0-40% RH, with intervals of 10% RH, at 25° C. with stability dm/dt of 0.002% ° C./min. The sorption time was 6 hr time out.
The sample was recovered after completion of the isotherm and re-analyzed by XRPD. Custom moisture sorption methods were also performed at 25° C. at fixed % RH intervals over a 0-95% RH range, with the purpose to fully understand the sorption/desorption behavior of the compound under elevated conditions.
To further explore the humidity behavior of Sample 1 (Form 1) upon exposure to high RH (>90%), custom GVS experiments were designed and carried out. Initially, the sample was treated by holding at 90 and then 95% RH for ˜12 hours to see if hydrate formation could be observed (HighRH method of Steps 1 and 2 of Table 2, FIGS. 6C-6D).
To test the stability of the hydrated state, GVS method HighRH_Desorp_3 was designed with a desorption step and subsequent adsorption (see Table 2 with steps 1-4, FIGS. 6E-6F).
Finally, to ensure complete conversion to the anhydrous and hydrated forms, a GVS experiment was designed to increase both the length of the desorption step at 0% RH, and the adsorption step at 95% RH, respectively (Table 3). Based on the weight stabilization observed in the kinetic plots for Sample 1 in HighRH and HighRH_Desorp_3 methods discussed above (FIGS. 6D and 6F), a holding time of 800 mins at 0% RH and 1600 mins at 95% RH were chosen. A double cycle was also recorded for this experiment to observe whether the sample would return to Form 1 or form a mixed anhydrous/hydrated species (see Table 3, FIGS. 6G-6H).

[4] = Storage at elevated temperature/humidity, analysed by XRPD; format: physicochemical; details: 1 week
Experimental: Samples 1 and 2 were characterized by XRPD at various conditions. XRPD patterns were collected for the samples at ambient condition as the samples were provided; at variable temperature (VT-XRPD); at variable humidity (VH-XRPD); after the samples were exposed to 40° C./75% RH for 1 week and 25° C./97% RH for 1 week, respectively; and after a GVS measurement wherein the samples were exposed to 0-90% RH. Samples 1 and 2 were also characterized by ^1H NMR, TGA, DSC, KF, IC, GVS (exposed to 0-90% RH), PLM, SEM, and HPLC (Table 5).

[5] = Variable humidity XRPD (VH-XRPD); format: physicochemical
Experimental: Samples run under non-ambient conditions were prepared by gently packing into a cavity, cut into a silicon wafer to obtain a flat surface and mounted onto a humidity stage with an Ansyco controller and humidity sensor positioned directly next to the sample holder. The data were collected at 298.15 K with water temperature of 35.0° C., in an angular range of 3 to 31° 2θ, with a step size of 0.025° 2θ, a collection time of 2.0 sec/step, and a collection time at each % RH was 41 min 28 sec. X-Ray Powder Diffraction (XRPD) patterns were collected at variable humidity values from 0 to 95% RH, based upon the humidity behavior of each compound observed during GVS experiments (described herein). For each Variable Humidity X-Ray Powder Diffraction (VH-XRPD) experiment performed, the % RH values selected are provided alongside the relevant experimental result. Full tables of detailing the % RH value at each collection point and the associated delay time at each value are provided in Tables 10-12. To fully characterize the polymorphic behavior of Samples 1 and 2 at variable humidity, and to collect reference XRPD patterns for the ‘pure’ anhydrous Form 1 and Form 2 material, and ‘pure’ hydrated Form 3 material, Variable Humidity (VH) XRPD experiments were conducted on Samples 1 and 2. Initially, VH-XRPD experiments were conducted using Sample 1, and XRPD diffractograms were collected at selected humidity values, in line with those collected during GVS experiments (see FIGS. 6E-6F). XRPD diffractograms were collected initially at ambient RH, then collected over 24 hours at ˜95% RH and finally collected during desorption steps to 0% RH and over 10 hours at 0% RH (see FIG. 4C). […]

XRPD post storage at 25° C./97% RH (10 days) ([1]; 25° C./97% RH): Consistent with Form 3
XRPD post storage at 40° C./75% RH (10 days) ([1]; 40° C./75% RH): Consistent with Form 3
SMILES: CCNCCc1ccc(CN(CC)c2cc(OC)ccc2[C@@H]2CCc3cc(O)ccc3C2)cc1.Cl.Cl [Lyophilization in water]

SMILES: CCNCCc1ccc(CN(CC)c2cc(OC)ccc2[C@@H]2CCc3cc(O)ccc3C2)cc1 [RAD1901]
Selectivity of binding to the estrogen receptor (ER) [2]: good selectivity

Hygroscopicity (GVS) ([3]; 0-90% RH): hygroscopic
XRPD after storage at 25° C./97% RH for 1 week ([4]; 25° C./97% RH): Form 3 (FIGS. 5B and
XRPD after storage at 40° C./75% RH for 1 week ([4]; 40° C./75% RH): Form 3 (FIG. 5B)
VH-XRPD at 0% RH ([5]; 0% RH): 5E). Form 2 at 0% RH
SMILES: CCNCCc1ccc(CN(CC)c2cc(OC)ccc2[C@@H]2CCc3cc(O)ccc3C2)cc1.Cl.Cl [Sample 2]
XRPD post GVS (uptake 0-90% RH) ([3]; after exposure to 0-90% RH): mixture of Form 2 and Form 3; also recorded: Mixture of form 2 and 3
VH-XRPD at high RH (>90%) ([5]; >90% RH (92-93% RH recorded)): conversion toward the hydrated state; also recorded: Conversion to Form 3
